How the values were obtained:
[1] = test system: Japanese encephalitis virus; conditions: compared with Dengue virus; cited from earlier work
[2] = test system: Japanese encephalitis virus; conditions: upon treatment; cited from earlier work
FSS-13025 strain of ZIKV = test: Anti-ZIKV activity in SNB-19 cells, ZIKV NS1 expression by Western blot; type: cell-based, Zika virus; conditions: 100 μm, 500 μm and 1 mM, treated one hour prior to inoculation (MOI=1), harvested 24 hours post-infection
Experimental: FIG. 1. Castanospermine as anti-ZIKV compound. Castanospermine was screened for antiviral activity against ZIKV infection. Glioblastoma SNB-19 cells were treated with castanospermine at the indicated concentrations one hour prior to inoculation with the FSS-13025 strain of ZIKV (at MOI=1). Cells were harvested 24 hours post-infection and analyzed by Western blot for ZIKV-NS1 or GAPDH.
Cells of the glioblastoma SNB-19 cell line were maintained at 37° C. in 5% CO2 in […], 1× penicillin/streptomycin, and 10% fetal bovine serum (Invitrogen). SNB-19 cells were treated with castanospermine at increasing concentrations (100 μm, 500 μm, and 1 mM) one hour prior to inoculation with the FSS-13025 strain of ZIKV. Cells were harvested 24 hours post-infection and analyzed by Western blot for ZIKV-NS1 or GAPDH.

Row | SMILES | Effect on cell infection by Japanese encephalitis virus [1] | Mortality rate among mice given a lethal dose of Japanese encephalitis virus [2] | Inhibition of ZIKV infection (ZIKV protein NS1 expression) (FSS-13025 strain of ZIKV)
1 | CCCCCCCCCN1C[C@H](O)[C@@H](O)[C@H](O)[C@H]1CO [NN-DNJ, N-nonyl-deoxynojirimycin] | suppressed cell infection but to a lesser extent than with Dengue virus | decreased mortality rate | –
2 | O[C@H]1[C@H](O)[C@@H](O)CN2CC[C@H](O)[C@H]12 [castanospermine, (1S,6S,7R,8aR)-Tetrahydroxyoctahydroindolizine] | – | – | significantly inhibit ZIKV infection

From patent US10561642B2, “Treatment of Zika virus infections using alpha-glucosidase inhibitors” (FLORIDA STATE UNIVERSITY RESEARCH FOUNDATION, INC., priority 2016, dated 2020)
